TGI and GI50 data for eight molecules are collected here from PubChem BioAssay (NCI).

Values joined by “and” are separate entries in the source; they are usually repeats but may differ in a detail not shown here. Equal values may be shown once.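 Values below derive from 48-hour exposures of cells grown in 96-well plates, with endpoints linearly interpolated between the two concentrations bracketing the appropriate inhibition level. At the GI50, growth is halved. The concentration for full growth arrest is given as TGI.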

Experiment in all cases: NCI-60 cell line screen, 48 h
Experiment [1] concerns CCRF-CEM leukemia.
Experiment [2] concerns EKVX NSCLC.
Experiment [3] has as its system HCT-15 colon.
Experiment [4] has as its system HOP-62 NSCLC.
The subject of experiment [5] is IGROV1 ovarian.
For experiment [6], the system named is OVCAR-4 ovarian.
For experiment [7], the system named is OVCAR-8 ovarian.
Experiment [8] concerns PC-3 prostate.
Experiment [9] concerns SK-MEL-28 melanoma.
For experiment [10], the system named is SK-MEL-5 melanoma.

For the molecule `CCN(CC)CCNc1c2ccccc2nc2cccc([N+](=O)[O-])c12`, the TGI in [1] is 0.48 µM; in experiment [2], 0.0298 µM and 0.08 µM; in experiment [3] it was 0.0205 µM and 0.0398 µM; in experiment [4], 0.0164 µM; in experiment [5], 0.0267 µM; in experiment [6], 0.0289 µM and 0.178 µM. Also, the TGI in [7] was 0.0382 µM; in [8], 0.0122 µM; in [9], 0.0566 µM and 0.152 µM; in experiment [10] it was 0.0173 µM and 0.0258 µM. The GI50 in experiment [2] is 0.029 µM; in [6], 0.0279 µM; in [10] it was 0.0112 µM.
For `CN(C)c1ccc(C(=S)c2ccc(N(C)C)cc2)cc1`, the GI50 in experiment [1] is 6640 nM; in experiment [2] it was 16.5 µM; in experiment [3], 4.27 µM; in experiment [4] it was 5.09 µM; in [5] it was 6.29 µM; in [6] it was 16.9 µM. In addition, the GI50 was 11.6 µM in experiment [7], 22.5 µM in experiment [8], 7.59 µM in experiment [9] and 3.45 µM in experiment [10]. For the same molecule, the TGI in experiment [1], in [2], in experiment [3], in experiment [4], in experiment [5] and in experiment [6] was above 100 µM throughout. For the same molecule, the TGI in experiment [7] is above 100 µM; in [8], above 100 µM; in experiment [9], above 100 µM; in experiment [10], 20.6 µM.
On to `C[C@@H]1CC[C@H]2[C@@H](C)C(O)O[C@@H]3O[C@]4(C)CC[C@@H]1[C@]32OO4` (stereo partly drawn), for which the GI50 is 568 nM in experiment [1]; 0.65 µM in [2]; 0.141 µM in experiment [3]; 2.99 µM in experiment [4]; 1.13 µM in [5]; 2.43 µM in [6]. Besides, the GI50 in [7] was 0.389 µM; in experiment [8], 0.0662 µM; in experiment [9], 3.23 µM; in experiment [10] it was 0.53 µM. Besides, the TGI in experiment [1] was 35 µM; in experiment [2], 17.2 µM; in experiment [3] it was 13.8 µM; in experiment [4], 18.7 µM; in experiment [5], 5.23 µM; in experiment [6], above 56.7 µM. Moreover, the TGI in experiment [7] is 12.7 µM; in experiment [8] it was above 43.3 µM; in [9] it was above 74.5 µM; in [10], 16.6 µM.
For the molecule `COc1ccc(-c2nn(-c3cccc(Cl)c3)cc2/C=C2\NC(=S)N(c3ccc(Cl)cc3)C2=O)cc1`, the GI50 was 2980 nM in [1]; 4.32 µM in experiment [2]; 7.94 µM in experiment [3]; 3.91 µM in experiment [4]; 4.99 µM in experiment [5]; 3.54 µM in [6]. Also, the GI50 in [7] was 2.62 µM; in experiment [8] it was 5.37 µM; in [9] it was 4.1 µM; in experiment [10], 4.22 µM. In addition, the TGI in experiment [1] was 11 µM; in experiment [2], 15.8 µM; in [3] it was above 25 µM; in experiment [4] it was 7.83 µM; in experiment [5], 10.1 µM; in [6], 7.45 µM. In addition, the TGI in experiment [7] was determined as 7.02 µM; in experiment [8], 21.6 µM; in experiment [9] it was 7.97 µM; in experiment [10], 11 µM.
With `CCOC(=O)C1(CC(=O)O)CCCC1=O` (stereo not drawn), the TGI in experiment [1], in [2], in [3], in experiment [4], in [5] and in experiment [6] was above 100 µM throughout. For the same molecule, the TGI in [7], in experiment [8], in [9] and in [10] was above 100 µM throughout.
On to `Oc1ccc(NC(=S)Nc2ccccc2)cc1`, for which the GI50 is above 100000 nM in [1]; above 100 µM in experiment [2]; above 100 µM in experiment [3]; above 100 µM in experiment [4]; above 100 µM in experiment [5]; above 100 µM in experiment [6]. Also, the GI50 in experiment [7], in experiment [8], in experiment [9] and in experiment [10] was above 100 µM in each case. Besides, the TGI in experiment [1], in [2], in experiment [3], in experiment [4], in [5] and in experiment [6] was above 100 µM throughout. The TGI in [7], in experiment [8], in experiment [9] and in experiment [10] was above 100 µM throughout.
As for `C=CC(=O)N[C@@H]1CN(c2nc(Nc3cn(C)nc3OC)c3ncn(C)c3n2)C[C@H]1F`, the GI50 in [1] is 39400 nM; in [2], 0.273 µM; in experiment [3] it was 39 µM; in experiment [4], 26.2 µM; in experiment [5], 2.61 µM; in [6], 26.7 µM. Further, the GI50 is 33.6 µM in experiment [7], 60.1 µM in experiment [8], 50 µM in experiment [9] and 24.8 µM in experiment [10]. For the same molecule, the TGI in experiment [1] was above 100 µM; in experiment [2], 97.9 µM; in [3] it was above 100 µM; in experiment [4], above 100 µM; in experiment [5] it was above 72.6 µM; in experiment [6], above 100 µM. Besides, the TGI in experiment [7] is above 100 µM; in experiment [8] it was above 100 µM; in experiment [9] it was above 100 µM; in [10], above 59.8 µM.
As for `COc1ccccc1-n1cnc(N)c1C(=O)c1cc(OC)c(OC)c(OC)c1`, the GI50 in [1] was 2690 nM; in experiment [2], 7.55 µM; in [3] it was 3.36 µM; in [4] it was 37.4 µM; in experiment [5], 3.88 µM; in [6], 6.5 µM. The GI50 is 5.85 µM in [7], 3.51 µM in experiment [8], 9.62 µM in experiment [9] and 3.13 µM in experiment [10]. Moreover, the TGI in experiment [1], in experiment [2], in [3], in experiment [4], in experiment [5] and in [6] was above 100 µM throughout. Further, the TGI in experiment [7], in experiment [8], in experiment [9] and in experiment [10] was above 100 µM throughout.
